Data as given in patent US6683027B2, “Herbicidal mixtures” (BASF Aktienegesellschaft, priority 2000, dated 2004).

Key:
Format in all cases: in vivo
[1] = test system: Setaria viridis; assay: greenhouse pre-emergence trial, percent damage vs untreated control 21 days after treatment; conditions: SETVI, Example 1A
[2] = test system: Lolium perenne; assay: as above; conditions: 60 g/ha, LOLPE, Example 1A
[3] = test system: Galium aparine; assay: as above; conditions: GALAP; for JV 485 alone (% control): Example 3
[4] = test system: Papaver rhoeas; assay: as above; conditions: 60 g/ha, PAPRH, Example 1A
[5] = test system: Alopecurus myosuroides; assay: as above; conditions: ALOMY; for JV 485 alone (% control): Example 3
[6] = test system: Veronica persica; assay: as above; conditions: VERPE, Example 1A
[7] = test system: Stellaria media; assay: as above; conditions: 60 g/ha, STEME, Example 1A
[8] = test system: Papaver rhoeas; assay: greenhouse post-emergence trial, percent damage vs untreated control 21 days after treatment; conditions: PAPRH, Example 1B
Procedure: (§1) The trials are carried out under greenhouse conditions in pre- and post-emergence applications. The plant seeds are sown in pots containing a loamy sand soil (0.5 l). The herbicides are applied as single treatments, or in a combination comprising a compound of formula I and compound selected from group (2) as defined above, before or after emergence of weeds and crop. The herbicidal performance is assessed as percent damage in comparison to the untreated control plants. The assessment is done 21 days after the treatment. Wheat and barley are treated at the 3-4 leaf stage, the broad-leaf weeds at the 2-4 leaf stage and annual grasses at the 2-3 leaf stage.

[9] = test system: Stellaria media; assay: as above; conditions: STEME; for fenoxaprop alone (% control): Example 13
Procedure: as §1

[10] = test system: Apera spica-venti; assay: as above; conditions: APESV; for cinidon-ethyl alone (% control): Example 10; for clodinafop alone (% control): Example 12; for mecoprop alone (% control): Example 7; for pendimethalin alone (% control): Example 14
Procedure: as §1

[11] = test system: Lamium purpureum; assay: as above; conditions: LAMPU; for MCPA alone (% control): Example 4; for clodinafop alone (% control): Example 12; for ioxynil alone (% control): Example 8; for mecoprop alone (% control): Example 7
Procedure: as §1

[12] = test system: Alopecurus myosuroides; assay: as above; conditions: ALOMY; for IPU alone (% control): Example 1B; for MCPA alone (% control): Example 4; for fenoxaprop alone (% control): Example 13; for flupyrsulfuron alone (% control): Example 5; for pendimethalin alone (% control): Example 14
Procedure: as §1

[13] = test system: Veronica persica; assay: as above; conditions: VERPE, Example 1B
Procedure: as §1

[14] = test system: Lolium perenne; assay: as above; conditions: LOLPE; for MCPA alone (% control): Example 4; for fenoxaprop alone (% control): Example 13; for mecoprop alone (% control): Example 7
Procedure: as §1

[15] = test system: Setaria viridis; assay: as above; conditions: SETVI; for IPU alone (% control): Example 1B; for MCPA alone (% control): Example 4; for carfentrazone alone (% control): Example 9; for cinidon-ethyl alone (% control): Example 10; for flupyrsulfuron alone (% control): Example 5
Procedure: as §1

[16] = test system: Lamium purpureum; assay: greenhouse pre-emergence trial, percent damage vs untreated control 21 days after treatment; conditions: LAMPU, Example 1A
[17] = test system: Matricaria inodora; assay: greenhouse post-emergence trial, percent damage vs untreated control 21 days after treatment; conditions: MATIN; for carfentrazone alone (% control): Example 9; for cinidon-ethyl alone (% control): Example 10
Procedure: as §1

[18] = test system: Galium aparine; assay: as above; conditions: GALAP; for clodinafop alone (% control): Example 12; for flupyrsulfuron alone (% control): Example 5
Procedure: as §1

CC(C)c1ccc(NC(=O)N(C)C)cc1 [IPU]
IPU alone (% control) ([1]; 60 g/ha): 0%
IPU alone (% control) ([1]; 120 g/ha): 20%
IPU alone (% control) ([1]; 240 g/ha): 65%
IPU alone (% control) [2]: 40%
IPU alone (% control) ([3]; 120 g/ha, Example 1A): 0%
IPU alone (% control) [4]: 0%
IPU alone (% control) ([5]; 60 g/ha, Example 1A): 43%
IPU alone (% control) ([6]; 60 g/ha): 0%
IPU alone (% control) ([6]; 120 g/ha): 0%
IPU alone (% control) ([6]; 240 g/ha): 0%
IPU alone (% control) [7]: 15%
IPU alone (% control) ([8]; 60 g/ha): 0%
IPU alone (% control) ([8]; 120 g/ha): 25%
IPU alone (% control) ([8]; 240 g/ha): 48%
IPU alone (% control) ([9]; 60 g/ha, Example 1B): 25%
IPU alone (% control) ([10]; 60 g/ha, Example 1B): 50%
IPU alone (% control) ([11]; 60 g/ha, Example 1B): 0%
IPU alone (% control) ([12]; 60 g/ha): 15%
IPU alone (% control) ([12]; 120 g/ha): 38%
IPU alone (% control) ([13]; 60 g/ha): 15%
IPU alone (% control) ([13]; 240 g/ha): 5%
IPU alone (% control) ([14]; 60 g/ha, Example 1B): 38%
IPU alone (% control) ([15]; 60 g/ha): 15%
IPU alone (% control) ([15]; 120 g/ha): 40%
IPU alone (% control) ([16]; 60 g/ha): 0%
IPU alone (% control) ([16]; 120 g/ha): 15%
IPU alone (% control) ([16]; 240 g/ha): 70%

CC(C)OC(=O)c1cc(-c2nn(C)c(C(F)(F)F)c2Br)c(F)cc1Cl [JV 485, isopropyl 2-chloro-4-fluoro-5-(4-bromo-1-methyl-6-trifluoromethyl-pyrazol-3-yl)-benzoate, reference compound]
JV 485 alone (% control) ([3]; 60 g/ha): 0%
JV 485 alone (% control) ([3]; 120 g/ha): 63%
JV 485 alone (% control) ([5]; 30 g/ha): 10%
JV 485 alone (% control) ([5]; 60 g/ha): 25%
JV 485 alone (% control) ([5]; 120 g/ha): 65%

Cc1cc(Cl)ccc1OCC(=O)O [MCPA, reference compound]
MCPA alone (% control) ([9]; 480 g/ha, Example 4): 65%
MCPA alone (% control) ([10]; 240 g/ha, Example 4): 0%
MCPA alone (% control) ([11]; 120 g/ha): 0%
MCPA alone (% control) ([11]; 240 g/ha): 0%
MCPA alone (% control) ([11]; 480 g/ha): 13%
MCPA alone (% control) ([12]; 120 g/ha): 0%
MCPA alone (% control) ([12]; 240 g/ha): 0%
MCPA alone (% control) ([12]; 480 g/ha): 0%
MCPA alone (% control) ([14]; 120 g/ha): 0%
MCPA alone (% control) ([14]; 240 g/ha): 10%
MCPA alone (% control) ([15]; 120 g/ha): 25%
MCPA alone (% control) ([15]; 240 g/ha): 43%

Cc1nn(-c2cc(CC(Cl)C(=O)O)c(Cl)cc2F)c(=O)n1C(F)F (stereo not shown) [carfentrazone, reference compound]
carfentrazone alone (% control) ([9]; 1.88 g/ha, Example 9): 0%
carfentrazone alone (% control) ([17]; 1.88 g/ha): 0%
carfentrazone alone (% control) ([17]; 15 g/ha): 48%
carfentrazone alone (% control) ([15]; 1.88 g/ha): 0%
carfentrazone alone (% control) ([15]; 15 g/ha): 0%

CCOC(=O)C(Cl)=Cc1cc(N2C(=O)C3=C(CCCC3)C2=O)ccc1Cl [cinidon-ethyl, reference compound]
cinidon-ethyl alone (% control) ([10]; 25 g/ha): 0%
cinidon-ethyl alone (% control) ([10]; 50 g/ha): 0%
cinidon-ethyl alone (% control) ([18]; 25 g/ha, Example 10): 20%
cinidon-ethyl alone (% control) ([17]; 12.5 g/ha): 53%
cinidon-ethyl alone (% control) ([17]; 25 g/ha): 68%
cinidon-ethyl alone (% control) ([15]; 25 g/ha): 0%
cinidon-ethyl alone (% control) ([15]; 50 g/ha): 0%

C[C@@H](Oc1ccc(Oc2ncc(Cl)cc2F)cc1)C(=O)O [clodinafop, reference compound]
clodinafop alone (% control) ([10]; 15 g/ha): 0%
clodinafop alone (% control) ([10]; 30 g/ha): 15%
clodinafop alone (% control) ([11]; 7.5 g/ha): 0%
clodinafop alone (% control) ([11]; 15 g/ha): 0%
clodinafop alone (% control) ([12]; 7.5 g/ha, Example 12): 10%
clodinafop alone (% control) ([18]; 7.5 g/ha): 0%
clodinafop alone (% control) ([18]; 15 g/ha): 0%
clodinafop alone (% control) ([18]; 30 g/ha): 0%
clodinafop alone (% control) ([14]; 15 g/ha, Example 12): 65%

CC(Oc1ccc(Oc2nc3ccc(Cl)cc3o2)cc1)C(=O)O (stereo not shown) [fenoxaprop, reference compound]
fenoxaprop alone (% control) ([9]; 30 g/ha): 0%
fenoxaprop alone (% control) ([9]; 60 g/ha): 0%
fenoxaprop alone (% control) ([10]; 30 g/ha, Example 13): 58%
fenoxaprop alone (% control) ([12]; 15 g/ha): 0%
fenoxaprop alone (% control) ([12]; 30 g/ha): 0%
fenoxaprop alone (% control) ([17]; 30 g/ha, Example 13): 0%
fenoxaprop alone (% control) ([14]; 15 g/ha): 3%
fenoxaprop alone (% control) ([14]; 60 g/ha): 43%

COc1cc(OC)nc(NC(=O)NS(=O)(=O)c2nc(C(F)(F)F)ccc2C(=O)O)n1 [flupyrsulfuron, reference compound]
flupyrsulfuron alone (% control) ([10]; 2.5 g/ha, Example 5): 0%
flupyrsulfuron alone (% control) ([12]; 2.5 g/ha): 35%
flupyrsulfuron alone (% control) ([12]; 5 g/ha): 53%
flupyrsulfuron alone (% control) ([12]; 10 g/ha): 73%
flupyrsulfuron alone (% control) ([18]; 5 g/ha): 0%
flupyrsulfuron alone (% control) ([18]; 10 g/ha): 0%
flupyrsulfuron alone (% control) ([14]; 10 g/ha, Example 5): 10%
flupyrsulfuron alone (% control) ([15]; 2.5 g/ha): 0%
flupyrsulfuron alone (% control) ([15]; 5 g/ha): 10%
flupyrsulfuron alone (% control) ([15]; 10 g/ha): 10%

N#Cc1cc(I)c(O)c(I)c1 [ioxynil]
ioxynil alone (% control) ([10]; 120 g/ha, Example 8): 0%
ioxynil alone (% control) ([11]; 60 g/ha): 0%
ioxynil alone (% control) ([11]; 120 g/ha): 15%
ioxynil alone (% control) ([11]; 240 g/ha): 28%
ioxynil alone (% control) ([14]; 240 g/ha, Example 8): 0%

Cc1cc(Cl)ccc1OC(C)C(=O)O (stereo not shown) [mecoprop, reference compound]
mecoprop alone (% control) ([10]; 240 g/ha): 0%
mecoprop alone (% control) ([10]; 480 g/ha): 0%
mecoprop alone (% control) ([10]; 960 g/ha): 0%
mecoprop alone (% control) ([11]; 240 g/ha): 10%
mecoprop alone (% control) ([11]; 480 g/ha): 48%
mecoprop alone (% control) ([14]; 240 g/ha): 0%
mecoprop alone (% control) ([14]; 480 g/ha): 0%
mecoprop alone (% control) ([14]; 960 g/ha): 0%

CCC(CC)Nc1c([N+](=O)[O-])cc(C)c(C)c1[N+](=O)[O-] [pendimethalin, reference compound]
pendimethalin alone (% control) ([10]; 120 g/ha): 5%
pendimethalin alone (% control) ([10]; 240 g/ha): 40%
pendimethalin alone (% control) ([12]; 120 g/ha): 0%
pendimethalin alone (% control) ([12]; 240 g/ha): 15%
pendimethalin alone (% control) ([18]; 120 g/ha, Example 14): 23%
pendimethalin alone (% control) ([15]; 480 g/ha, Example 14): 40%

CCS(=O)(=O)c1nc2ccccn2c1S(=O)(=O)NC(=O)Nc1nc(OC)cc(OC)n1 [sulfosulfuron, reference compound]
sulfosulfuron alone (% control) ([14]; 3.75 g/ha, Example 6): 18%
